Earlier results as cited in paper PMC4738315, “How to unveil self-quenched fluorophores and subsequently map the subcellular distribution of exogenous peptides” (Scientific Reports, 2016).

Target: anionic phospholipids (DOPC/DOPG or POPC/POPG)
Details: POPC/POPG 75:25; ref 9 (Gonçalves et al., 2005); read-out: Affinity for PLs, Kd
Excerpt: page 25: Supplementary Table 1: Sequences of the three studied CPPs and their respective affinities for glycosaminoglycans or anionic phospholipids. Peptide Sequence Affinity for HS, Kd, µM[a] Affinity for PLs, Kd, µM Penetratin (Pen)3 RQIKIWFQNRRMKWKK nd[b] 63 (DOPC/DOPG 90:10)4 Tat peptide (Tat)5 YGRKKRRQRRR 1.676 83 (POPC/POPG 75:25)7 Arg98 RRRRRRRRR 0.329 12 (POPC/POPG 75:25)9 [a] HS: heparan sulfate. [b] nd: not determined. 25

Sequence: RRRRRRRRR [Arg9, nona-arginine, nona-arginine cell-penetrating peptide]
- Kd: 12 µM
